≈ marks a conversion by molar mass, not a printed value.
Assays:
[1] = tested on: prostaglandin E2; test: Antagonistic activity to the contracturant effect of prostaglandin E2 (isolated rat colon, method of Magnus); settings: Krebs 37° C, product added 30 seconds before PGE2 (5 to 10 ng/ml), 50% inhibition of contractions
Procedure: A. Antagonistic activity to the contracturant effect of prostaglandin E2
The antagonistic effect of the test compounds to the contracturant activity of prostaglandin E2 was determined by the method of Magnus wherein a portion of the colon adjacent to the caecum was removed from a rat and was washed with a Krebs solution at 37° C. The colon was then suspended in a bath of oxygenated Krebs liquid kept at 37° C and the contactions of the organ were registered with a collector attached to a Sanborn polygraph. The organ was first standarized with prostaglandin E2 to determine the concentration necessary to obtain a significant contraction (5 to 10 ng/ml). The antagonistic product was added to the bath 30 seconds before the standard dose of PGE2 and the intensity of the contraction was measured. The concentration of product which inhibited by 50% the contractions provoked by PGE2 was determined by the straight line effect-log of the dose and the CI50 is reported in Table I.

[2] = tested on: guinea pig ileon; test: Relaxant activity on the guinea pig ileon; settings: Cavia porcellus, Tyrode 37° C, concentration suppressing spontaneous contractions and relaxing the organ, read-out: Relaxant action
Procedure: B. Relaxant Activity on the guinea pig ileon
The relaxant effect of the test compounds was determined on guinea pig ileon using the procedure of Test A above. The terminal portion of the guinea pig ileon was removed and washed with Tyrode solution at 37° C. It was then suspended in an bath of oxygenated Tyrode liquid at 37° C and the contractions were registered on a collector attached to a Sanborn polygraph. The test product was added to bath of the organ with a low volume and the concentration which caused a suppression of spontaneous contractions and relaxed the organ, cuasing a lowering of the line of the base was considered to be relaxant.

[3] = tested on: prostaglandin synthetases of lungs of guinea pigs; test: Inhibitory effect against biosynthesis of prostaglandins from arachidonic acid (Vane); format: biochemical; settings: guinea pig lung homogenate supernatant, arachidonic acid 10 μg, 30 minutes at 37° C; read-out on isolated rat colon; read-out: CI50 (the source's name)
From the text: D. Inhibitory effect against biosynthesis of prostaglandins
Synthesis of prostaglandins starting with arachidonic acid by means of prostaglandin synthetases of lungs of guinea pigs
This test used the procedure of Vane [Nature New-Biology, Vo. 231 (1971), p. 232-235] wherein the lungs of adult guinea pigs (two per series) were rapidly removed and washed with a modified, iced Bucher medium. The lung tissue was homogenized in a Turrax grinder in a minute and the homogenate was centrifuged for 20 minutes to 1200 g. The supernatant was used as a preparation of prostaglandin synthetases.
A solution of arachidonic acid in ethanol at a concentration of 10 mg/ml was diluted with a 0.2% aqueous sodium carbonate solution and was then diluted further with a modified Bucher medium to obtain a final acid concentration of 200 μg/ml. The biosynthesis inhibitors are put into aqueous on dilute alcohol (20% maximum) solutions. Tubes were prepared containing 1 ml of the prostaglandin synthetases preparation, 10 μg of arachidonic acid and 0.1 ml of inhibiting solution or, for the controls, an equal volume of water or dilute alcohol. The tubes were incubated with stirring for 30 minutes at 37° C in aerobic conditions and each test consisted of a tube containing a biosynthesis inhibitor, one biosynthesis control with incubated arachidonic acid and one control with non-incubated arachidonic acid. The latter control permitted a evaluation of amount of natural prostaglandins present in the ground lung and the results obtained with this control must therefore be taken away from the control of biosynthesis and from all the tests. The reactions are stopped by immersion in boiling water until the proteins are coagulated. The dosage of "prostaglandin like" activity was effected biologically on the isolated rat colon suspended in Krebs liquid, mixed to augment the specificity, with antagonists to other contracturant mediators susceptible to interfere. The antagonists were mepyramine, scopolamine, methysergide, phenoxybenzamine and propanolol.
A comparison of the results registered in the presence or absence of a test product permitted the calculation of the percentage of biosynthesis inhibition. The CI50 dose which inhibited by 50% the biosynthesis activity was graphically obtained by straight line representing the percent of inhibition with reference to the incubated controls against the log of the concentration in μg/ml and the results are reported in Table IV.

[4] = tested on: mice; test: Analgesic activity -- stretching provoked by acetic acid (Koster et al); format: in vivo; settings: Mus musculus, 0.25 h, oral, one half hour before intraperitoneal acetic acid, 15 minute observation, dose reducing stretchings by 50%, read-out: DA50 (the source's name)
Procedure: C. Analgesic Activity -- stretching provoked by acetic acid
The test procedure was that of Koster et al wherein an interitoneal injection of aqueous acetic acid in a concentration of 1% at a dose of 100 mg/kg caused in mice repeated movements of strectching and twisting which can persist for more than 6 hours. Analgesics prevent or lessen the syndrome. The test products were orally administered one half hour before the acetic acid injection and the mice were fasted from the day before the tests. The stretching were counted for each mouse during a 15 minute observation period beginning right after the acetic acid injection and the analgesic affect was expressed as a percentage of protection with respect to the controls.

CCCCC[C@H](O)/C=C/[C@H]1CC[C@@H](O)[C@@H]1C(=O)OCC (relative stereo) [A]
CI50 against PGE2 [1]: 20 µg/mL (≈ 70.3 µM) | minimal effective concentration [2]: 20 µg/mL

CCCCC[C@H](O)/C=C/[C@H]1CC[C@H](O)[C@@H]1C(=O)OCC (relative stereo) [B]
IC50 [3]: 376 µM | ED50 [4]: 100 mg/kg | minimal effective concentration [2]: 20 µg/mL

CCCCCCCCCOC(=O)[C@H]1[C@@H](O)CC[C@@H]1/C=C/[C@@H](O)CCCCC (relative stereo) [D]
IC50 [3]: 523 µM | minimal effective concentration [2]: 10 µg/mL

CCCCC[C@@H](/C=C/[C@H]1CC[C@H](O)[C@@H]1C(=O)OCC)OC1CCCCO1 (relative stereo) [F]
CI50 against PGE2 [1]: 20 µg/mL (≈ 54.3 µM) | IC50 [3]: 54 µM | ED50 [4]: ~100 mg/kg | minimal effective concentration [2]: 20 µg/mL

CCCCC[C@@H](/C=C/[C@H]1CC[C@@H](O)[C@@H]1C(=O)OCC)OC1CCCCO1 (relative stereo) [G]
CI50 against PGE2 [1]: 20 µg/mL (≈ 54.3 µM) | IC50 [3]: 204 µM | ED50 [4]: ~100 mg/kg | minimal effective concentration [2]: 20 µg/mL

CCCCC[C@@H](CC[C@H]1CC[C@H](O)[C@@H]1C(=O)OCC)OC1CCCCO1 (relative stereo) [H]
minimal effective concentration [2]: 10 µg/mL

CCCCC[C@@H](/C=C/[C@H]1CC[C@H](O)[C@@H]1C(=O)OC)OC1CCCCO1 (relative stereo) [I]
minimal effective concentration [2]: 5 µg/mL

CCCCC[C@@H](/C=C/[C@H]1CC[C@H](O)[C@@H]1C(=O)OCCC)OC1CCCCO1 (relative stereo) [J]
minimal effective concentration [2]: 10 µg/mL

CCCCC[C@@H](CC[C@H]1CC[C@@H](O)[C@@H]1C(=O)OCC)OC1CCCCO1 (relative stereo) [K]
minimal effective concentration [2]: 5 µg/mL

CCCCC[C@@H](/C=C/[C@H]1CC[C@@H](O)[C@@H]1C(=O)OC)OC1CCCCO1 (relative stereo) [L]
minimal effective concentration [2]: 5 µg/mL

CCCCC[C@@H](/C=C/[C@H]1CC[C@@H](O)[C@@H]1C(=O)OCCC)OC1CCCCO1 (relative stereo) [M]
IC50 [3]: 652 µM | minimal effective concentration [2]: 5 µg/mL

C#C[C@@](O)(/C=C/[C@H]1CC[C@H](O)[C@@H]1C(=O)OCC)CCCCC (relative stereo) [N]
minimal effective concentration [2]: 5 µg/mL

C#C[C@@](/C=C/[C@H]1CC[C@H](O)[C@@H]1C(=O)OCC)(CCCCC)OC1CCCCO1 (relative stereo) [O]
IC50 [3]: 229 µM

C#C[C@@](/C=C/[C@H]1CC[C@@H](O)[C@@H]1C(=O)OCC)(CCCCC)OC1CCCCO1 (relative stereo) [P]
IC50 [3]: 382 µM | ED50 [4]: ~100 mg/kg | minimal effective concentration [2]: 5 µg/mL

C#C[C@@](/C=C/[C@H]1CC[C@H](O)[C@@H]1C(=O)OCC)(CCCCC)OC1CCCCO1 (relative stereo) [Product O, Ethyl (1RS, 2SR, 5RS, 3'SR) (1'E) 2-hydroxy-5-(3'-α-tetrahydropyranyloxy-3'-ethynyl-1'-octenyl)-cyclopentanecarboxylate]
minimal effective concentration [2]: 10 µg/mL

CCCCC[C@@H](/C=C/[C@H]1CC[C@@H](O)[C@@H]1C(=O)CCC)OC1CCCCO1 (relative stereo) [Q]
minimal effective concentration [2]: 10 µg/mL

CCCCC[C@@H](/C=C/[C@H]1CC[C@@H](O)[C@H]1C(=O)OCC)OC1CCCCO1 (relative stereo) [R]
IC50 [3]: 542 µM

CCCCC[C@@H](/C=C/[C@H]1CC[C@H](O)[C@@H]1C(=O)CCC)OC1CCCCO1 (relative stereo) [S]
IC50 [3]: 628 µM

CCCCCC(C)(O)/C=C/[C@H]1CC[C@@H](O)[C@@H]1C(=O)OCC (some centres unmarked) [C]
IC50 [3]: 503 µM | minimal effective concentration [2]: 1 µg/mL

CCCCCC(C)(O)/C=C/[C@H]1CC[C@H](O)[C@@H]1C(=O)OCC (some centres unmarked) [E]
IC50 [3]: 604 µM | minimal effective concentration [2]: 5 µg/mL

Reference: patent US4109009A, “Analgesic, relaxant, and anti-inflammatory cyclopentanol derivatives” (Roussel Uclaf, priority 1975, dated 1978)
